# Source: publication PMC13192270, “RhlR quorum-sensing receptor ligand sensitivity regulates the differential expression of phenazine genes in Pseudomonas aeruginosa” (Journal of Bacteriology, 2026)
# Test system: ΔrhlI strain expressing WT RhlR
# Assay: RNA-seq gene expression
# Assay type: cell-based, Pseudomonas aeruginosa
# Set-up: opmD Expression value / mexI Expression value / mexH Expression value / mexG Expression value / lasB Expression value / rhlA Expression value / rhlB Expression value / rhlR Expression value / lecB Expression value / fhp Expression value / chiC Expression value / hcnA Expression value / mvfR Expression value / katB Expression value / norC Expression value / norB Expression value / katA Expression value: unit not given here
# Conditions: 2 µM C4HSL
# Protocol: To determine the effects of hypo- and hypersensitivity to C4HSL on RhlR-dependent transcription activation in P. aeruginosa, we performed RNA-seq on ΔrhlI strains expressing WT RhlR, RhlR T58L, and RhlR A44M in the presence of 2 µM C4HSL. We chose this approach to better control the levels of C4HSL across samples. All gene expression analyses were done relative to a ΔrhlI strain without exogenous supplementation of AHL. Thus, we examined the total increase in C4HSL-dependent gene regulation. We observed increased rhlA RNA levels in strains expressing WT RhlR and the RhlR T58L variant compared to ΔrhlI without C4HSL or a strain expressing the RhlR A44M variant (Table 2; Table S1). […] To corroborate our RNA-seq data, we built an rhlA promoter fusion to mScarlet and assayed reporter levels in the same genetic backgrounds as our transcriptomic experiment (Fig. S7D). Strains expressing hypersensitive RhlR variants produced similar levels of fluorescent signal relative to the WT strain, while a strain expressing a hyposensitive RhlR variant had diminished levels of fluorescent reporter (Fig. S7D).
# A total of […] of overnight cultures was back diluted 1:100 in 20 mL of fresh LB media and incubated for 5 h at 37°C with shaking. Cells were harvested by centrifugation, and pellets were frozen until RNA extraction. RNA was extracted using the Invitrogen PureLink RNA Mini Kit. Pellets were resuspended in 100 µL lysozyme solution containing 10 mM Tris-HCl pH 8.0, 0.1 mM EDTA, and 1 mg/mL lysozyme. Five microliters of 1% SDS was added, and the solution was mixed with a vortex and incubated at room temperature for 5 min. A total of 350 µL lysis buffer (Invitrogen) was added with 10 µL 2-mercaptoethanol for each 1 mL of lysis buffer and vortexed. Cells were lysed by bead beating (BioSpec 0.1 MM Zirconia/Silica Beads) for two rounds of 50 s. Lysed cells were transferred to fresh microcentrifuge tubes with 250 µL of 100% ethanol and mixed with a vortex. Samples were spun in spin cartridges (Invitrogen) at 12,000 × g for 15 s at room temperature, and the flow-through was discarded. A total of 700 µL Wash Buffer I (Invitrogen) was added and spun at 12,000 × g for 15 s at room temperature, and the flow-through was discarded. A total of 500 µL Wash Buffer II (Invitrogen) with ethanol was added and centrifuged for 12,000 × g for 15 s at room temperature; the flow-through was discarded, and RNA samples were washed again. Cells were spun at 12,000 × g for 1 min at room temperature to dry the membrane with the bound RNA. A total of 50 µL RNAse-free water was added to the center of the spin cartridge, incubated at room temperature for 1 min, and centrifuged for 2 min at ≥12,000 × g at room temperature. Extracted RNA was then frozen at −80°C until further use.
# Bulk RNA was sent to SeqCenter (Pittsburgh, PA) where it was processed for paired-end Illumina sequencing via rRNA depletion using Ribo-Zero Plus (Illumina). Fastq files generated by SeqCenter were processed using Rockhopper with default settings ([61][–][63]). Briefly, fastq files were aligned to the genome of Pseudomonas aeruginosa UCBPP-PA14. The reads were subsequently normalized using upper-quartile normalization, and transcript abundance was determined by reads per kilobase per million mapped reads. Differential gene expression analysis was conducted using a negative binomial distribution model, outputting a P-value for each transcript. The P-values were then corrected for false discovery using the Benjamini-Hochberg procedure, resulting in the q-values reported here (Table S2). SignalMap v2.0 (NimbleGen Systems) was used to visualize read counts for phzABCDEFG1/2, phzH, phzM, and phzS (Fig. 5). Aligned sequences generated in Rockhopper were converted to GFF files, and genes of interest were isolated into unique GFF files ([37]).
compound,measurement,setting,value
"CCCC(=O)N[C@H]1CCOC1=O [C4HSL, N-butyryl-L-homoserine lactone]",chiC Expression value,,"3,525,171.5"
same,fhp Expression value,,"641,438"
same,hcnA Expression value,,"44,841"
same,katA Expression value,,"14,093,439.5"
same,katB Expression value,,"3,028,118.5"
same,lasB Expression value,,"19,914,902.5"
same,lecB Expression value,,"366,190"
same,mexG Expression value,,"516,840.5"
same,mexH Expression value,,"903,148"
same,mexI Expression value,,"920,093.5"
same,mvfR Expression value,,"301,183"
same,norB Expression value,,"6,989,112.5"
same,norC Expression value,,"3,120,586.5"
same,opmD Expression value,,"631,843.5"
same,phnA Expression value,,"1,160,599.5"
same,phnB Expression value,,"350,722"
same,phzA1 Expression value,,"15,501"
same,phzA2 Expression value,,"238,645"
same,phzB1 Expression value,,"218,602.5"
same,phzB2 Expression value,,"4,517,504"
same,phzC1 Expression value,,"655,136.5"
same,phzC2 Expression value,,"4,730,067"
same,phzD1 Expression value,,"2,329,509"
same,phzD2 Expression value,,"2,063,245.5"
same,phzE1 Expression value,,"4,232,986.5"
same,phzE2 Expression value,,"3,213,651.5"
same,phzF1 Expression value,,"1,981,300.5"
same,phzF2 Expression value,,"1,982,482"
same,phzG1 Expression value,,"560,110.5"
same,phzG2 Expression value,,"2,035,315"
same,phzM Expression value,,"184,602"
same,phzS Expression value,,"726,300.5"
same,pqsA Expression value,,"1,089,687.5"
same,pqsB Expression value,,"2,286,881.5"
same,pqsC Expression value,,"2,211,818.5"
same,pqsD Expression value,,"2,409,895"
same,pqsE Expression value,,"1,210,331"
same,rhlA Expression value,,"1,118,561.5"
same,rhlB Expression value,,"1,056,112.5"
same,rhlR Expression value,,"1,082,023"
same,chiC Log2fold change,vs ΔrhlI without AHL,4.67
same,fhp Log2fold change,vs ΔrhlI without AHL,6.375
same,hcnA Log2fold change,vs ΔrhlI without AHL,0.4821
same,katA Log2fold change,vs ΔrhlI without AHL,2.183
same,katB Log2fold change,vs ΔrhlI without AHL,7.942
same,lasB Log2fold change,vs ΔrhlI without AHL,2.638
same,lecB Log2fold change,vs ΔrhlI without AHL,0.03694
same,mexG Log2fold change,vs ΔrhlI without AHL,6.993
same,mexH Log2fold change,vs ΔrhlI without AHL,6.553
same,mexI Log2fold change,vs ΔrhlI without AHL,5.716
same,mvfR Log2fold change,vs ΔrhlI without AHL,0.3556
same,norB Log2fold change,vs ΔrhlI without AHL,7.423
same,norC Log2fold change,vs ΔrhlI without AHL,7.283
same,opmD Log2fold change,vs ΔrhlI without AHL,6.473
same,phnA Log2fold change,vs ΔrhlI without AHL,−0.9963
same,phnB Log2fold change,vs ΔrhlI without AHL,−0.7095
same,phzA1 Log2fold change,vs ΔrhlI without AHL,−0.9521
same,phzA2 Log2fold change,vs ΔrhlI without AHL,4.504
same,phzB1 Log2fold change,vs ΔrhlI without AHL,−0.627
same,phzB2 Log2fold change,vs ΔrhlI without AHL,4.419
same,phzC1 Log2fold change,vs ΔrhlI without AHL,1.576
same,phzC2 Log2fold change,vs ΔrhlI without AHL,4.692
same,phzD1 Log2fold change,vs ΔrhlI without AHL,3.417
same,phzD2 Log2fold change,vs ΔrhlI without AHL,3.452
same,phzE1 Log2fold change,vs ΔrhlI without AHL,3.384
same,phzE2 Log2fold change,vs ΔrhlI without AHL,3.413
same,phzF1 Log2fold change,vs ΔrhlI without AHL,3.113
same,phzF2 Log2fold change,vs ΔrhlI without AHL,3.107
same,phzG1 Log2fold change,vs ΔrhlI without AHL,1.459
same,phzG2 Log2fold change,vs ΔrhlI without AHL,4.193
same,phzM Log2fold change,vs ΔrhlI without AHL,−0.9094
same,phzS Log2fold change,vs ΔrhlI without AHL,−0.04329
same,pqsA Log2fold change,vs ΔrhlI without AHL,−1.279
same,pqsB Log2fold change,vs ΔrhlI without AHL,−0.7204
same,pqsC Log2fold change,vs ΔrhlI without AHL,−0.7931
same,pqsD Log2fold change,vs ΔrhlI without AHL,−0.874
same,pqsE Log2fold change,vs ΔrhlI without AHL,−1.056
same,rhlA Log2fold change,vs ΔrhlI without AHL,2.147
same,rhlB Log2fold change,vs ΔrhlI without AHL,2.998
same,rhlR Log2fold change,vs ΔrhlI without AHL,0.762
